Assay results taken from patent US7786079B2, “Substituted nonadepsipeptides” (priority 2004, dated 2010).
*1 amine or outer side, *2 acyl side, *3 side chain or, on linkers, in order; H or OH if unused. Where a SMILES comes first, the peptide text is derived from it. Bridges are numbered along the chain shown (N, C = ends). Side-chain parts run from the residue outwards. [ ]: non-standard residue; d: D form. The star is where a group is joined. X1 = NC(=O)[C@@H](OC(=O)c1ccc(N2CCOCC2)nc1)[C@H](N[*:1])C(=O)[*:2]; Phe(3R-OH) = O=C([C@@H](N[*:1])[C@H](O[*:3])c1ccccc1)[*:2]; X2 = NC(=O)[C@@H](OC(=O)Nc1ccccc1)[C@H](N[*:1])C(=O)[*:2]; NH(4-morpholinophenyl) = c1cc(N2CCOCC2)ccc1N*; Asn(3S-OH) = NC(=O)[C@@H](O)[C@H](N)C(=O)O; Leu(3R-OH) = CC(C)[C@@H](O)[C@H](N)C(=O)O; aThr = C[C@H](O)[C@H](N)C(=O)O; CO = O=C([*:1])[*:2]

Legend:
E. faecium L4001 = type: cell-based
Description: (§1) Determination of the Minimum Inhibitory Concentration (MIC): The MIC is determined in the liquid dilution test in accordance with the NCCLS guidelines. […] The cultures are incubated at 37° C. for 18-24 hours, S. pneumoniae in the presence of 10% CO2. The lowest substance concentration in each case at which no visible bacterial growth occurs any more is defined as the MIC. The MIC values are reported in μg/ml.

[1] = test system: Staphylococcus aureus 133; type: cell-based
Description: as §1

[2] = test system: Streptococcus pneumoniae G9a; type: cell-based
Description: as §1

E. faecalis ICB 27159 = type: cell-based, Entercococcus faecalis
Description: as §1

SMILES	MIC E. faecium L4001 (E. faecium L4001)	MIC S. aureus 133 [1]	MIC S. pneumoniae G9a [2]	MIC E. faecalis ICB 27159 (E. faecalis ICB 27159)
CC[C@H](C)[C@@H]1NC(=O)[C@@H](CCCNC(=N)N)NC(=O)[C@H](CC(C)C)NC(=O)[C@H]([C@H](O)C(C)C)NC(=O)[C@@H](NC(=O)[C@H](CC(C)C)NC(=O)[C@H](N)CC(C)C)[C@@H](c2ccccc2)OC(=O)[C@H](CO)NC(=O)[C@H]([C@H](OC(=O)c2ccc(N3CCOCC3)nc2)C(N)=O)NC(=O)CNC(=O)[C@H]([C@H](C)O)NC1=O.O=C(O)C(F)(F)F.O=C(O)C(F)(F)F [Example 17] (H-[dL]L[Phe(3R-OH)][Leu(3R-OH)]L[dR]I[aThr]G[X1]S; ester 3-C)	4 µg/mL	0.5 µg/mL	0.5 µg/mL	2 µg/mL
CC[C@H](C)[C@@H]1NC(=O)[C@@H](CCCNC(=N)N)NC(=O)[C@H](CC(C)C)NC(=O)[C@H]([C@H](O)C(C)C)NC(=O)[C@@H](NC(=O)[C@H](CC(C)C)NC(=O)[C@H](N)CC(C)C)[C@@H](c2ccccc2)OC(=O)[C@H](CO)NC(=O)[C@H]([C@H](OC(=O)Nc2ccccc2)C(N)=O)NC(=O)CNC(=O)[C@H]([C@H](C)O)NC1=O.O=C(O)C(F)(F)F.O=C(O)C(F)(F)F [Example 2] (H-[dL]L[Phe(3R-OH)][Leu(3R-OH)]L[dR]I[aThr]G[X2]S; ester 3-C)	4 µg/mL	0.5 µg/mL	1 µg/mL	1 µg/mL
CC[C@H](C)[C@@H]1NC(=O)[C@@H](CCCNC(=N)NC(=O)Nc2ccc(N3CCOCC3)cc2)NC(=O)[C@H](CC(C)C)NC(=O)[C@H]([C@H](O)C(C)C)NC(=O)[C@@H](NC(=O)[C@H](CC(C)C)NC(=O)[C@H](N)CC(C)C)[C@@H](c2ccccc2)OC(=O)[C@H](CO)NC(=O)[C@H]([C@H](O)C(N)=O)NC(=O)CNC(=O)[C@H]([C@H](C)O)NC1=O.O=C(O)C(F)(F)F [Example 11] (H-[dL]L[Phe(3R-OH)][Leu(3R-OH)]L[dR]([CO-NH(4-morpholinophenyl)])I[aThr]G[Asn(3S-OH)]S; ester 3-C)	1 µg/mL	0.5 µg/mL	0.5 µg/mL	0.5 µg/mL
